Source: patent US5814612A, “Retinol derivatives and uses thereof” (priority 1992, dated 1998)

Legend:
[1] = test system: T cells; assay: T cell activation and proliferation, retinol cofactor requirement; assay type: cell-based, murine
Procedure: They were seeded into 96-well flat-bottom plates at varying cellular densities in a final volume of 100 μl. In control experiments, cells were cultured in medium containing 10% FCS or 3% human serum and 5×10^-5 M 2ME. […] Cultures were carried out in duplicate. Plates were incubated at 37° C. in a humidified 5% CO2 atmosphere. Cellular proliferation was determined by [^3 H] thymidine uptake (0.5 uCi/well; New England Nuclear, Boston, Mass.) after the incubation times indicated for each experiment with a 4 hour labeling pulse. Cells were harvested onto glass filter and [^3 H]TdR incorporation was determined by liquid scintillation counting. The data presented are the means of duplicate or six replicate cultures. The restriction to duplicate measurements was necessary to conserve scarce 14HRR. […] Each experiment was repeated at least twice.

[2] = test system: lymphoblastoid cells (LCL); settings: cited from earlier work
[3] = test system: B lymphocytes; settings: previous analyses with B lymphocytes (ref. 33); cited from earlier work
[4] = test system: lymph node T cells; assay: Proliferation of anti-CD3 activated lymph node T cells; assay type: cell-based, BALB/c mouse
Description: (§1) Growth curves of lymph node T cells depleted of antigen-presenting cells (FIG. 17A) with and without 10^-6 M retinol at 2×10^5 and 5×10^4 cells/well. (FIG. 17B) Dose-responses elicited by different retinoids in cultures of lymph node T cells depleted of antigen-presenting cells. Also shown are the growth curves of CD4^+ (FIG. 17C) and CD8^+ T lymphocytes (FIG. 17D) in the presence of either retinol, 14HRR, human serum or in their absence.
(§2) T lymphocytes, purified as described, 5×10^4 /well, were activated with immobilized anti-CD3 antibody in ITLB medium. The indicated amounts of retinoids or human serum were added at initiation of cultures. […] 14HRR was added every 12 hours. DNA synthesis was measured by a 4 hour pulse with tritiated thymidine. SDs were ≤17%.
(§3) Mature T cells were obtained from pooled intestinal, axillary, inguinal and submandibular lymph nodes of 4 to 10-week-old BALB/c mice. To fractionate cells into CD4 and CD8 subsets and at the same time remove APC, a combination of adherence and complement lysis was used as follows:
(§4) The cell suspension in a volume of 2 ml was applied to a nylon wool column (40) (0.6 g of washed nylon fibers in the barrel of a 10 ml syringe) and incubated at 37° C. for 40 min. […] The success of the enrichment procedures was monitored cytofluorimetrically using FITC-conjugated anti-CD8 and PE-conjugated anti-CD4. […]
Cells were cultured in serum-free medium, referred to as ITLB, containing RPMI 1640 supplemented with 8×10^-7 M insulin (5 μg/ml), 7×10^-8 M transferrin (5 μg/ml), 2×10^-6 M linoleic acid, 2×10^-6 M delipidated BSA (0.12 mg/ml), 2 mM L-glutamine, 1 mM sodium pyruvate and antibiotics. […] The optimal concentration for stimulation of T cells was determined for each batch of anti-CD3 mAb and Con A. The optimal range of Con A was particularly narrow in serum-free medium (0.5-0.2 μg/ml) and varied with the cell density used. […] Cellular proliferation was determined by [^3 H] thymidine uptake (0.5 uCi/well; New England Nuclear, Boston, Mass.) after the incubation times indicated for each experiment with a 4 hour labeling pulse. […]

[5] = test system: activated human thymocytes; settings: cited from earlier work
[6] = test system: CD8^+ T lymphocytes; assay: Proliferation of anti-CD3 plus IL-2 activated CD8+ T lymphocytes; assay type: cell-based, BALB/c mouse
Description: as §1, §2, §3, §4

[7] = test system: CD4^+ T lymphocytes; assay: Proliferation of anti-CD3 activated CD4+ T lymphocytes; assay type: cell-based, BALB/c mouse
Description: as §1, §2, §3, §4

[8] = test system: thymocytes; assay: Proliferation of anti-CD3 activated thymocytes in serum-free ITLB medium; assay type: cell-based, BALB/c mouse
Procedure: FIG. 14A: Purified BALB/c thymocytes were activated with immobilized anti-CD3e antibody and cultivated for four days in ITLB medium with or without retinol (3×10^-6 M), 14HRR (6×10^-7 M) (fresh 14HRR was added every 12 hours), human serum (3%) or FCS (10%) at the cellular densities shown. Proliferation was assayed by tritiated thymidine incorporation into cellular DNA.
FIG. 14B: BALB/c thymocytes (10^6 /ml) were added to microtiter plates coated with titrated amounts of anti-CD3e antibody with […] retinol or without, as indicated. Proliferation was measured in hexaduplicate wells on day 3 by ^3 H thymidine incorporation assay.
Purified thymocytes (5×10^5 cells/well) were stimulated by TCR crosslinking with immobilized anti-CD3e antibody (FIG. 15A) or 0.4 μg/ml Con A (FIG. 15B) in serum-free ITLB medium. The indicated amounts of retinoids were added either once at the beginning of the experiment (marked as "1×") or every 12 hours thereafter (marked as "6×"). DNA synthesis was measured after 72 hours by tritiated thymidine uptake as described.
Purified thymocytes (10^5 cells/well) were activated with anti-CD3 antibody in ITLB medium with or without retinol (3×10^-6 M), 14HRR (6×10^-7, added every 12 hours or human serum (3%)). DNA synthesis was measured daily by a 4 hour pulse of tritiated thymidine.
Thymocytes (5×10^4 /well) were activated by immobilized anti-CD3 mAb in medium ITLB. Retinol (2×10^-6 M) was added at initiation of culture, or delayed by 12 hours and 24 hours, respectively, or omitted altogether. ^3 H thymidine pulses of 4 hours were used to measure DNA synthesis of hexaduplicate wells.
Thymuses of 3 to 6-week-old BALB/c mice were teased in serum-free RPMI medium supplemented with 1% BSA, 10^-6 M linoleic acid and antibiotics. Depletion of accessory cells was achieved by two cycles of complement-dependent lysis with a mixture of anti-IA^d (5 μg/ml) and anti-IE^d (1:500 diluted ascites fluid). Briefly, cells were incubated on ice for 30 minutes with Ia antibodies, spun down, resuspended in 1:40 diluted rabbit complement, and incubated at 37° C. for 45 minutes. Incubations and two subsequent washes were carried out with RPMI medium containing 1% BSA. Cell viability was evaluated by trypan blue dye exclusion. To determine the extent of depletion of accessory cells, samples were stained with FITC-conjugated anti-Fc receptor antibody and analyzed by flow cytometry on a FACScan instrument (Becton Dickinson).
Cells were cultured in serum-free medium, referred to as ITLB, containing RPMI 1640 supplemented with 8×10^-7 M insulin (5 μg/ml), 7×10^-8 M transferrin (5 μg/ml), 2×10^-6 M linoleic acid, 2×10^-6 M delipidated BSA (0.12 mg/ml), 2 mM L-glutamine, 1 mM sodium pyruvate and antibiotics. They were seeded into 96-well flat-bottom plates at varying cellular densities in a final volume of 100 μl. In control experiments, cells were cultured in medium containing 10% FCS or 3% human serum and 5×10^-5 M 2ME. T cells and thymocytes were activated with immobilized, purified anti-mAb CD3e or by the addition of Con A in the presence or absence of different concentrations of retinoids. Unless indicated otherwise, retinoids were replenished every 12 hours to maintain a reasonably constant concentration of these labile compounds in culture. […] Cultures were carried out in duplicate. Plates were incubated at 37° C. in a humidified 5% CO2 atmosphere. Cellular proliferation was determined by [^3 H] thymidine uptake (0.5 uCi/well; New England Nuclear, Boston, Mass.) after the incubation times indicated for each experiment with a 4 hour labeling pulse.

[9] = test system: lymphoblastoid 5/2 cells; assay: Conversion of 13,14DHR to 14HRR by lymphoblastoid cells; assay type: in vitro ADME, human; settings: 10^-6 M, 1 and 2 hours, ITLB medium
Procedure: FIGS. 25A through 25D. 13,14DHR can be converted to 14HRR by lymphoblastoid cells. 200,000 5/2 cells/ml were incubated with or without 10^-6 M 13,14DHR added in serum-free ITLB medium. After 1 and 2 hours, cells pellets corresponding to 10 ml of culture were delipidated and the corresponding lipid fractions separated on an analytical C18 reversed-phase column according to FIG. 20. Peaks were identified according to their retention times and their UV absorption patterns.
Lymphoblastoid 5/2 cells devoid of retinol were cultured in the presence or absence of 10^-6 M 13,14DHR for 1 and 2 hours in ITLB medium. The retinoids extracted from the cell pellets were separated by HPLC according to FIG. 20. […] There was no 14HRR measurable in control cultures.

[10] = test system: 5/2 lymphoblastoid cells; assay: Kinetics of biosynthesis of 13,14DHR and 14HRR from 3H retinol in 5/2 lymphoblastoid cells; assay type: in vitro ADME, human
Procedure: FIG. 24. Kinetics of biosynthesis of 14HRR in lymphoblastoid cells. 50 ml ITLB 600,000 5/2 cells/ml were incubated with 20 μCi of ^3 H retinol in serum-free ITLB medium. Cell pellets corresponding to 10 ml of culture were delipidated at 20 minute intervals and the corresponding lipid fraction separated on an analytical C18 reversed-phase column (see FIG. 20). Radioactive peaks were identified by coelution with cold reference retinoids.
The kinetics of biosynthesis of 13,14DHR and 14HRR were determined in 5/2 lymphoblastoid cells. These cells were cultured in the presence of ^3 H retinol for different time periods, and the cell-associated retinoids extracted as referenced above. They were then chromatographed on an analytical C18 column as described in FIG. 20. The sizes of peaks emerging at 16.8 minutes, representing 13,14DHR, and 18.5 minutes, representing 14HRR, were measured and plotted in the bar diagram of FIG. 24.

[11] = test system: 5/2 cells; assay: Growth-supporting activity on 5/2 cells in serum-free ITLB medium; assay type: cell-based, human
Procedure: The assay was done in 96-well microtiter plates in a final volume of 200 ul/well. The cells were cultured for 72 hours and cell growth determined by [^3 H] thymidine (0.8 μCi/well)labeling for the last 16 hours. Retinoids were added at the indicated concentrations at the initiation of culture and every 24 hours thereafter.
5/2 cells were grown in the absence of retinol in a medium containing the basic RPMI 1640 amino acid/salt mixture, insulin (5 μg/ml), transferrin (5 μg/ml), albumin (0.1%) and linoleic acid (10^-6 M) (ITLB). […] The dose-response curve shown in FIG. 26 indicates an effective concentration of 10^-7 M.

Compound: CC1=C(/C=C/C(C)=C/C=C/C(C)=C/C=O)C(C)(C)CCC1 [all-trans retinal]
- ability to substitute for retinol in T cell activation (words) [1]: can substitute for retinal
- support of growth of LCL in serum-free medium [2]: support the growth of LCL in serum-free medium
- active concentration [3]: 200 nM
- stimulation of lymph node T cells [4]: dependent on the presence of retinal
- support of growth of activated human thymocytes [5]: The same is true for activated human thymocytes
- response of CD8+ subset to anti-CD3 plus IL-2 [6]: responded to the activating signal
- response of CD4+ subset to anti-CD3 [7]: responded to the activating signal
- effect of delayed addition ([8]; addition delayed by 24 hours): complete failure of activation
- effectiveness relative to retinol ([8]; anti-CD3, 14HRR at 12 hour intervals): equally effective as all-trans retinol
- optimally effective dose ([8]; given once in a 3-day culture): 2 µM
- optimally effective dose ([8]; provided at 12 hour intervals): 0.2 µM

Compound: CC1=C(/C=C/C(C)=C/C=C/C(C)(O)C(O)CO)C(C)(C)CCC1 (stereo not drawn) [13,14DHR, 13,14-dihydroxy-retinol]
- ability to substitute for retinol in T cell activation (words) [1]: can effectively substitute for retinol
- conversion to 14HRR [9]: produced 14HRR
- order of metabolite production [10]: production of 13,14DHR precedes that of 14HRR
- restoration of proliferation in absence of retinol [11]: proliferation was restored as well
